ChEMBL document CHEMBL5058646 (2022)

Experiments:
[1] = target: Serine/threonine-protein kinase ULK3 (Homo sapiens) (UniProt Q6PHR2); test: ULK3 SGC Tm panel (DSF); details: Compound concentration 20.0 uM
[2] = target: Vascular endothelial growth factor receptor 1 (Homo sapiens) (UniProt P17948); test: FLT1 SGC Tm panel (DSF); details: Compound concentration 20.0 uM
[3] = target: Zinc finger and BTB domain-containing protein 21 (Homo sapiens) (UniProt Q9ULJ3); details: SUD4, Compound concentration 1.0 uM
[4] = target: T1, Transcriptional regulator Kaiso (Homo sapiens) (UniProt Q86T24); details: SUD4, Compound concentration 1.0 uM
T1 sequence (whole entry): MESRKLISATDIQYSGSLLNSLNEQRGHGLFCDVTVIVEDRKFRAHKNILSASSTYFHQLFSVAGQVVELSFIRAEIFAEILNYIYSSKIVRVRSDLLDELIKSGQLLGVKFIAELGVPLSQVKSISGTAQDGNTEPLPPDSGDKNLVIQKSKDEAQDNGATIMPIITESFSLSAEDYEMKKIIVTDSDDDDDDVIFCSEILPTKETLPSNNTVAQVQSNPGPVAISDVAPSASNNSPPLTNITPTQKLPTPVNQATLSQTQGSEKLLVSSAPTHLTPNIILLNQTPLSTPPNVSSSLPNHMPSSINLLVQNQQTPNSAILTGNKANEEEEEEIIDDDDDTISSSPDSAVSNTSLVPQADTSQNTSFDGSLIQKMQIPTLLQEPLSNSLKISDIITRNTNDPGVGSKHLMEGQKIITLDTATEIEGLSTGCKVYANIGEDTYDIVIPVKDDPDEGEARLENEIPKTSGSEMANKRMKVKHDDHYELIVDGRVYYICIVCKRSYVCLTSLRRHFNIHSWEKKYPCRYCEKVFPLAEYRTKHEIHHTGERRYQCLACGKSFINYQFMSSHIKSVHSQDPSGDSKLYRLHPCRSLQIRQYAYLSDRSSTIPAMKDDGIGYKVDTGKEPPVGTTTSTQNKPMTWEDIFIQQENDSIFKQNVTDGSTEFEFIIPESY

[5] = target: MAP kinase-activated protein kinase 2 (Homo sapiens) (UniProt P49137); test: MAPKAPK2 SGC Tm panel (DSF); details: Compound concentration 20.0 uM
[6] = target: STE20-like serine/threonine-protein kinase (Homo sapiens) (UniProt Q9H2G2); test: SLK SGC Tm panel (DSF); details: Compound concentration 20.0 uM
[7] = target: Serine/threonine-protein kinase pim-1 (Homo sapiens) (UniProt P11309); test: PIM1 SGC Tm panel (DSF); details: Compound concentration 20.0 uM
Sequence of Serine/threonine-protein kinase pim-1 (Homo sapiens) (P11309 whole entry, looked up, the tested form may be a part): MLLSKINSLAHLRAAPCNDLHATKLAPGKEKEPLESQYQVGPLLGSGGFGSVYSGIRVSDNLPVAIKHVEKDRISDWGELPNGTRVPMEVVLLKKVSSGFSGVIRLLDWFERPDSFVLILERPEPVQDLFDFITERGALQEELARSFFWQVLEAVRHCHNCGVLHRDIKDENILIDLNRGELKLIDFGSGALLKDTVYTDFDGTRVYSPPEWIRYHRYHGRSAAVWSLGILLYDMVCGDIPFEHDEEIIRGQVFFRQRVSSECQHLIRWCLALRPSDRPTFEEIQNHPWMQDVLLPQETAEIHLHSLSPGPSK

[8] = target: T2, Zinc finger and BTB domain-containing protein 24 (Homo sapiens) (UniProt O43167); details: OCI-Ly1, Compound concentration 1.0 uM
T2 sequence (whole entry): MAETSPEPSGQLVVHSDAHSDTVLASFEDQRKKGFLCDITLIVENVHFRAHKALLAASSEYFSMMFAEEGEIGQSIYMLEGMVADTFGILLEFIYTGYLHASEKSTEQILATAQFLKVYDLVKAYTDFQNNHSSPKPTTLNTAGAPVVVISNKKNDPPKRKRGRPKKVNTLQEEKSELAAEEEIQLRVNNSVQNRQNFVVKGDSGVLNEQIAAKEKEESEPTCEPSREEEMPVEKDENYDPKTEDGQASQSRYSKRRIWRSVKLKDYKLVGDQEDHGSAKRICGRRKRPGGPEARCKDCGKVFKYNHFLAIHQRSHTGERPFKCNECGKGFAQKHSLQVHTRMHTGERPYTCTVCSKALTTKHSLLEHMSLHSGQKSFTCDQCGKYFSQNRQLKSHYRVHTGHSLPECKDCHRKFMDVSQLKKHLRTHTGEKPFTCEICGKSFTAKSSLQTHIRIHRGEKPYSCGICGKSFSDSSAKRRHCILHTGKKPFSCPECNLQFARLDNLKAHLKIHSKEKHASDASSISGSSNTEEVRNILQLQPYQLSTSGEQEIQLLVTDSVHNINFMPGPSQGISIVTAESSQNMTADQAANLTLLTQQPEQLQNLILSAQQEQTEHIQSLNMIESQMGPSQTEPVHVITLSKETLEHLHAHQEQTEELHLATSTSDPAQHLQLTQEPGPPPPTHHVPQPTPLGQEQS

[9] = target: Mitogen-activated protein kinase kinase kinase 5 (Homo sapiens) (UniProt Q99683); test: MAP3K5 SGC Tm panel (DSF); details: Compound concentration 20.0 uM
[10] = target: T3, Beta-3 adrenergic receptor (Homo sapiens, UniProt P13945); details: Compound concentration 10.0 uM
Target sequence in this assay (P13945 whole entry, looked up): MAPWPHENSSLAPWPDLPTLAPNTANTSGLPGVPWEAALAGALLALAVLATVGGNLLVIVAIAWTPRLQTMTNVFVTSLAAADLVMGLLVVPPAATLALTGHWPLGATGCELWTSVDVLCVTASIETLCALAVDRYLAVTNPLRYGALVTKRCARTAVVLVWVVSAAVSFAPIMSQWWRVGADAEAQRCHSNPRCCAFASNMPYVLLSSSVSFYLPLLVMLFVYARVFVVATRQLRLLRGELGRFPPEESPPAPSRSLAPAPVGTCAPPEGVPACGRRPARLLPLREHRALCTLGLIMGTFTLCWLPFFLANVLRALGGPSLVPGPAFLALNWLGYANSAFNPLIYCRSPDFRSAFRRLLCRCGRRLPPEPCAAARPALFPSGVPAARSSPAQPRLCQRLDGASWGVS

[11] = target: Histamine H4 receptor (Homo sapiens) (UniProt Q9H3N8); details: Compound concentration 10.0 uM
Sequence of Histamine H4 receptor (Homo sapiens) (Q9H3N8 whole entry): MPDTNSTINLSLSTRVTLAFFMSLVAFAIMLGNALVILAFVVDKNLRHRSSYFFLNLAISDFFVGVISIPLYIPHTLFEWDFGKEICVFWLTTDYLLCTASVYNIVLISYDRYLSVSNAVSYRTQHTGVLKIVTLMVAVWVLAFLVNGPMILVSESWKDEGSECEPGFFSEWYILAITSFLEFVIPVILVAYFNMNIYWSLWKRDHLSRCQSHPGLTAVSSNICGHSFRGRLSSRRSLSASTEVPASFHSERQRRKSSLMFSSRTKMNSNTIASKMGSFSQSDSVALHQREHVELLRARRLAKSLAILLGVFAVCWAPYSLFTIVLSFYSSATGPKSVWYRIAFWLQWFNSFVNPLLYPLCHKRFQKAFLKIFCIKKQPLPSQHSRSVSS

[12] = target: Dual specificity protein kinase CLK1 (Homo sapiens) (UniProt P49759); test: CLK1 SGC Tm panel (DSF); details: Compound concentration 20.0 uM
[13] = target: T1, Transcriptional regulator Kaiso (Homo sapiens); details: OCI-Ly1, Compound concentration 1.0 uM
[14] = target: 5-hydroxytryptamine receptor 1D (Homo sapiens, UniProt P28221); details: Compound concentration 10.0 uM
Sequence of 5-hydroxytryptamine receptor 1D (P28221 whole entry, the tested form may be a part): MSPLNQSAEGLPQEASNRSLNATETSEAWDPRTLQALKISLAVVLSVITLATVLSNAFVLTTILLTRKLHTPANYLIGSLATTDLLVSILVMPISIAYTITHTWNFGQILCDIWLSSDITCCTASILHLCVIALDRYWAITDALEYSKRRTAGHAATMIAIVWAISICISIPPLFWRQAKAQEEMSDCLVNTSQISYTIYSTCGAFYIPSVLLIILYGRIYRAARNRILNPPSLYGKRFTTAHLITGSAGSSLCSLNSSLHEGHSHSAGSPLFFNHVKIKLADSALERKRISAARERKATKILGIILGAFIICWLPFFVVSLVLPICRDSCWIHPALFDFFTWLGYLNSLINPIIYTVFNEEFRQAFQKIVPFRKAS

[15] = target: Zinc finger and BTB domain-containing protein 7A (Homo sapiens) (UniProt O95365); details: SUD4, Compound concentration 1.0 uM
Sequence of Zinc finger and BTB domain-containing protein 7A (Homo sapiens) (O95365 whole entry, the tested form may be a part): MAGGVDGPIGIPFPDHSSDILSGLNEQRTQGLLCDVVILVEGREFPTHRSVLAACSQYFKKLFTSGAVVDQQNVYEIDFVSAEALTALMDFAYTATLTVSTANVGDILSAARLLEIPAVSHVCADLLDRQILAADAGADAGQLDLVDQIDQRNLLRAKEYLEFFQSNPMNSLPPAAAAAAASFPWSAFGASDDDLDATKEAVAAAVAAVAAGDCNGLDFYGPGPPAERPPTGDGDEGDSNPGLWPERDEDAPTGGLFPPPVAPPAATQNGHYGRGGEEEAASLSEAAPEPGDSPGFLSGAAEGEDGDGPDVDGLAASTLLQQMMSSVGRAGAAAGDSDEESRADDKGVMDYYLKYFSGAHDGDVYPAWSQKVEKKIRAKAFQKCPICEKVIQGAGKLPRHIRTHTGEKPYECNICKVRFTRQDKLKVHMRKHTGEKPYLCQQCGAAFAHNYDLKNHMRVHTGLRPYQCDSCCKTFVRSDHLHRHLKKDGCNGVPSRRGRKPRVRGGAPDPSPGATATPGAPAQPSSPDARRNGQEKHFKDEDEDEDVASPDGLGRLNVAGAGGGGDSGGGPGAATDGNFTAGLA

[16] = target: Transcription regulator protein BACH2 (Homo sapiens) (UniProt Q9BYV9); details: SUD4, Compound concentration 1.0 uM
[17] = target: D(1A) dopamine receptor (Homo sapiens) (UniProt P21728); details: Compound concentration 10.0 uM
[18] = target: Zinc finger and BTB domain-containing protein 7A (Homo sapiens) (UniProt O95365); details: SUD4, Compound concentration 1.0 uM; remark: listed apart in the source
[19] = target: Zinc finger and BTB domain-containing protein 17 (Homo sapiens) (UniProt Q13105); details: SUD4, Compound concentration 1.0 uM
Sequence of Zinc finger and BTB domain-containing protein 17 (Homo sapiens) (Q13105 whole entry, the tested form may be a part): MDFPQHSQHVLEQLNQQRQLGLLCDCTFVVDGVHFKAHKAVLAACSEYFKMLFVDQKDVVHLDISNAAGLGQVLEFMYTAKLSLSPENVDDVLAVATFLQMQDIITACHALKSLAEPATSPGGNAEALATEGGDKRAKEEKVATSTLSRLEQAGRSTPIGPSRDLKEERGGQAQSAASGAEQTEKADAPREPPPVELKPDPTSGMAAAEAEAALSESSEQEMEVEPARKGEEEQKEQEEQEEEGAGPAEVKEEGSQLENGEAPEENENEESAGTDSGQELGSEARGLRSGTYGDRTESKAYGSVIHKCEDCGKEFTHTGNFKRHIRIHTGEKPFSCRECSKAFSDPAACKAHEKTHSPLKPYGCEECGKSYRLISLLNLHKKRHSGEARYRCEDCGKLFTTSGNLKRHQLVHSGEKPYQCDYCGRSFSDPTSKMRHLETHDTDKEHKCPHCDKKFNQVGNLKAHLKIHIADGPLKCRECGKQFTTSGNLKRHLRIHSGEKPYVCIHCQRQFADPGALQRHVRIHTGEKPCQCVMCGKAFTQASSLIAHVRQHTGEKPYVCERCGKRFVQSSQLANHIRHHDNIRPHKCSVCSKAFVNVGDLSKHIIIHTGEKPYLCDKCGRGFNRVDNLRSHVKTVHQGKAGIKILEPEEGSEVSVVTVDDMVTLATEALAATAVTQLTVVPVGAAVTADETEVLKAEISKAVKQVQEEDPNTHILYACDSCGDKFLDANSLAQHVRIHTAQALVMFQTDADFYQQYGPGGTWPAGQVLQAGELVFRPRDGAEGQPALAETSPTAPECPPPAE

[20] = target: Ephrin type-A receptor 7 (Homo sapiens) (UniProt Q15375); test: EPHA7 SGC Tm panel (DSF); details: Compound concentration 20.0 uM
Sequence of Ephrin type-A receptor 7 (Homo sapiens) (Q15375 28-998 limits assumed): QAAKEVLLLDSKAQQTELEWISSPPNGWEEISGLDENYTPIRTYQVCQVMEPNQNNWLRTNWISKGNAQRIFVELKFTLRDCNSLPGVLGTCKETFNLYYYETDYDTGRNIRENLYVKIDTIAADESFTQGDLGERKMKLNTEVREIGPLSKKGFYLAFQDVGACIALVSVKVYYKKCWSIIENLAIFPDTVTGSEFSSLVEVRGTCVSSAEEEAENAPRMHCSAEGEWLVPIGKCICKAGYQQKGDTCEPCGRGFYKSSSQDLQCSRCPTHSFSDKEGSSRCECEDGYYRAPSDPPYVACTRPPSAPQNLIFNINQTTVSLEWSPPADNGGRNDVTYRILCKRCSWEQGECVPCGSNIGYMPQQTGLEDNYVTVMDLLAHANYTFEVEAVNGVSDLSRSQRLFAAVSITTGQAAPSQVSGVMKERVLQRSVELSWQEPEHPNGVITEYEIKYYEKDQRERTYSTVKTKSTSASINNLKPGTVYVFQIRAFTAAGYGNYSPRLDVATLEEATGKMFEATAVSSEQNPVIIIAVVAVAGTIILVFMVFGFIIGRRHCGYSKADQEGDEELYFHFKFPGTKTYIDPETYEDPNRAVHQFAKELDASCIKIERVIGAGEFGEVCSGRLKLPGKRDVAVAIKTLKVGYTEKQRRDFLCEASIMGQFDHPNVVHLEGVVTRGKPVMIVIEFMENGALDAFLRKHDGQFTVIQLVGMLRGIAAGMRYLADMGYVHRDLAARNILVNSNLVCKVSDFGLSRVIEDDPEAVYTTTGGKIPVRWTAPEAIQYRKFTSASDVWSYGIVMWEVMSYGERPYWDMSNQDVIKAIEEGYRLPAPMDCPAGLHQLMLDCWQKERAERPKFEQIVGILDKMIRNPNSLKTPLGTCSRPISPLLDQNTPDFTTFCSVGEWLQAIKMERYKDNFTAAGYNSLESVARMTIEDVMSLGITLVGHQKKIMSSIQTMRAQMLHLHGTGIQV

[21] = target: 5-hydroxytryptamine receptor 2A (Homo sapiens) (UniProt P28223); details: Compound concentration 10.0 uM
[22] = target: Calcium/calmodulin-dependent protein kinase type IV (Homo sapiens) (UniProt Q16566); test: CAMK4 SGC Tm panel (DSF); details: Compound concentration 20.0 uM
[23] = target: Serine/threonine-protein kinase Chk2 (Homo sapiens) (UniProt O96017); test: CHEK2 SGC Tm panel (DSF); details: Compound concentration 20.0 uM
Sequence of Serine/threonine-protein kinase Chk2 (Homo sapiens) (O96017 whole entry): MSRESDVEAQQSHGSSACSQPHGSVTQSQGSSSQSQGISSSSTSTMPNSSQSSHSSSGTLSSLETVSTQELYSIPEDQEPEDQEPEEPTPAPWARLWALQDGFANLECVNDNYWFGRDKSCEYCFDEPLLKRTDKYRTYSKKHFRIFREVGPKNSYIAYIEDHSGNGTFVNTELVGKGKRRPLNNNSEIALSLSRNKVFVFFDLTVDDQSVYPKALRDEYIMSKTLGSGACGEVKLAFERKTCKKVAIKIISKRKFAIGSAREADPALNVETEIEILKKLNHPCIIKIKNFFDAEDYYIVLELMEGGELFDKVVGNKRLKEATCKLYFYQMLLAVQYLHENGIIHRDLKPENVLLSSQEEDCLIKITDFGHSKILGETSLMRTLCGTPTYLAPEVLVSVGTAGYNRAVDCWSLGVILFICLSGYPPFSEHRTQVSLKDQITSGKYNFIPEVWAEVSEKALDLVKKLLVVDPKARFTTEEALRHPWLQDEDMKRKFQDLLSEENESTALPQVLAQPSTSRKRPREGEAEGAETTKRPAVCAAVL

[24] = target: T3, Beta-3 adrenergic receptor; test: GPCRScan assay: inhibition of Beta3; set-up: radioligand conc. used [nm] 0.2 – 0.5, parental cells HEK Flp-In
Target sequence in this assay (P13945 whole entry): as the sequence (P13945 whole entry, looked up) above

[25] = target: Serine/threonine-protein kinase Nek2 (Homo sapiens) (UniProt P51955); test: NEK2 SGC Tm panel (DSF); details: Compound concentration 20.0 uM
Sequence of Serine/threonine-protein kinase Nek2 (Homo sapiens) (P51955 whole entry): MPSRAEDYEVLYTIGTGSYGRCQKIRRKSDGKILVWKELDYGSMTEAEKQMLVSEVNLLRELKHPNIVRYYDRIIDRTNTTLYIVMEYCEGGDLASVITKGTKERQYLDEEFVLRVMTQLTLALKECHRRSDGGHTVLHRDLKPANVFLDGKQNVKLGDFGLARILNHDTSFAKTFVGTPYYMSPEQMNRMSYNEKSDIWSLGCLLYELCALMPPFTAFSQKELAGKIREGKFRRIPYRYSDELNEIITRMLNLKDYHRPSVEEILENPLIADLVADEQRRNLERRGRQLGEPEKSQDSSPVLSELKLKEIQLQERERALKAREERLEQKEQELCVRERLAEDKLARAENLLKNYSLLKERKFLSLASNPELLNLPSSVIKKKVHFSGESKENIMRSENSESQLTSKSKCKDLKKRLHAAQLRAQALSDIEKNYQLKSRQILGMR

[26] = target: Sodium-dependent dopamine transporter (Homo sapiens, UniProt Q01959); details: Compound concentration 10.0 uM

C[C@@H]1CN(c2ncc(Cl)c(Nc3ccc4c(c3)n(CCC(C)(C)O)c(=O)n4C)n2)C[C@H](C)C1(F)F
inactive: Tm [1] 44 °C | Tm [2] 45 °C | LogFC [3] 0.0189 | LogFC [4] 0.0744 | Tm [5] 46 °C | Tm [6] 42 °C | Tm [7] 41 °C | LogFC [8] -0.111 | Tm [9] 40 °C | inhibition [11] -0.79% | Tm [12] 36 °C | LogFC [13] -0.0964 | LogFC [15] 0.0336 | LogFC [16] -0.0895 | inhibition [17] 27.3% | LogFC [18] -0.0678 | LogFC [19] 0.0294 | Tm [20] 48 °C | inhibition [21] 23.6% | Tm [22] 48 °C | Tm [23] 44 °C | Tm [25] 40 °C
active: inhibition [10] 65.3% | inhibition [14] 56.5% | inhibition [26] 50.8%
3.99 µM: Ki ([24]; read-out: Ki)
3.89 µM: Ki ([24]; read-out: pKi (converted))
